Experimental data published in patent US20200267989A1, “PARASITE TREATMENT COMPOUND” (University of Maine System Board of Trustees, priority 2017, published 2020).
Values joined by “and” are separate entries in the source; they are usually repeats but may differ in a detail not shown here. Equal entries are not always repeated.

Legend:
sea lice [1] = assay: KCl bath treatment of sea-lice-infected Atlantic salmon: sea lice detachment; type: in vivo
Description: (§1) A 0.48% (4.8 g/L-4.8 ppt) pharmaceutical grade KCl compound was tested on 30 Atlantic salmon that were infected with sea lice. The fish and the compound were added to a tank filled with seawater. After 30 minutes 15 fish were removed and placed in a recovery bath of seawater, and at 60 minutes the remaining 15 fish were removed.
(§2) A 0.43% % (4.3 g/L-4.3 ppt) agricultural grade KCl compound was tested on Atlantic salmon that were infected with sea lice. After 10 minutes the fish began showing agitation that increased until the 30 minute mark. Fish began losing equilibrium and began to roll over and stop respiring by 20 minutes.
(§3) A water holding tank was filled with fresh well water at 10° C.+−2° C. A 0.5% % (5.0 g/L-5.0 ppt) agricultural grade KCl solution was added to the water. A number of farm-raised Atlantic salmon that were infected with sea lice were added to the tank.
(§4) A water holding tank was filled with fresh well water at 10° C.+−2° C. A 0.2% % (2.0 g/L-2.0 ppt) agricultural grade KCl solution was added to the water. A number of farm-raised Atlantic salmon that were infected with sea lice were added to the tank.

Atlantic salmon = assay: KCl bath treatment of Atlantic salmon: adverse effects on the fish; type: in vivo
Description: as §1, §2, §3, §4

sea lice [2] = assay: Pilot laboratory trial: KCl pre-treatment plus mechanical devices for removal of sea lice from Atlantic salmon; type: in vivo
Description: A pilot laboratory trial was run using various forms of mechanical devices for removal of sea lice from Atlantic salmon (ATS). The effectiveness of the mechanical devices at removing/detaching lice was measured with and without KCl pretreatment, and the results compared.
The experiment consisted of testing 3 mechanical devices on lice infested Atlantic salmon (ATS) in seawater and then on lice infested Atlantic salmon that had been pre-treated in seawater with KCL at 4 part per thousand (PPT) or 2 PPT for 5 or 15 minutes. The mechanical treatment referred to as Treatment A in Table 1 was a water spray apparatus including multiple jets in a roughly circular arrangement, and treatments B and C in Table 1 were alternative mechanical treatments. Each treatment group was run separately with two fish were staggered by 15 minutes to facilitate counting lice, except for Treatment C as both fish were placed together. The treatment groups were as follows: • 1) Treatment A with seawater (2 fish) • 2) Treatment A with sea water plus KCL 4 PPT, 15 minutes (2 fish) • 3) Treatment B with seawater (2 fish) • 4) Treatment B with sea water plus KCL 4 PPT, 15 minutes (2 fish) • 5) Treatment A with seawater plus 2PPT, 15 minutes (1 fish) • 6) Treatment A with sea water plus KCL 4 PPT, 5 minutes (1 fish) • 7) Treatment C with seawater (2 fish) • 8) Treatment C sea water plus KCL 2 PPT (2 fish)
Each treatment group was performed essentially as follows:
Pre-Treatment before Treatment A, B, or C • 1) Take 1 fish and transfer it to Tank 1 (70 liter tank); • 2) Take 1 fish and transfer it to Tank 2, staggered (70 liter tank); • 3) Both tanks will be filled with seawater for Round 1 of a treatment group and seawater and KC1 4PPT X for Round 2 for a treatment; • 4) Fish swim around freely in treatment Tank 1 for 30 minutes; • 5) Fish swim around freely in treatment Tank 2 for 30 minutes;
Evaluation of Pretreatment: • 1) Remove Fish from Tank 1; • 2) Place 1 Fish in Sedation Tank; • 3) Count detached lice in Tank 1; • 4) Remove 1 Fish from Sedation Tank; • 5) Count numbers of Lice on each fish (making sure to differentiate between the two tanks); • 6) Repeat for staggered Tank 2.
Perform Mechanical Treatment: • 1) Pass fish through mechanical treatments (A, B or C) • 2) Count lice on fish

[3] = previously known pesticide treatment; cited from earlier work
[4] = Example 1: 0.48% (4.8 ppt) pharmaceutical grade KCl, seawater tank, 30 and 60 minutes
[5] = Example 3: 0.5% (5.0 ppt) agricultural grade KCl, fresh well water at 10° C.
[6] = Mechanical Treatment A, KCl 2 PPT in seawater, treatment time 15 min
[7] = Mechanical Treatment A, KCl 4 PPT in seawater, treatment time 5 min
[8] = Mechanical Treatment A, KCl 4 PPT in seawater, treatment time 15 min
[9] = Mechanical Treatment B, KCl 4 PPT in seawater, treatment time 15 min

[Cl-].[K+] [KCl, potassium chloride]
sea lice detachment (sea lice [1]; [4]): noticeable sea lice detachment | sea lice detachment (sea lice [1]; Example 2: 0.43% (4.3 ppt) agricultural grade KCl, by agitation and thrashing of the dying fish): detached more lice | sea lice removal (sea lice [1]; [5]): marked sea lice removal | sea lice detachment (sea lice [1]; Example 4: 0.2% (2.0 ppt) agricultural grade KCl, fresh well water at 10° C., after 30 minutes): marked sea lice detachment | effectiveness on sea lice in freshwater compared with seawater (sea lice [1]; freshwater vs seawater): more effective | adverse effects on the salmon (Atlantic salmon; [4]): no noticeable adverse effects | time by which fish began losing equilibrium, rolled over and stopped respiring (Atlantic salmon; Example 2: 0.43% (4.3 ppt) agricultural grade KCl): ≤ 20 min | time after which fish began showing agitation (Atlantic salmon; Example 2: 0.43% (4.3 ppt) agricultural grade KCl, agitation increased until the 30 minute mark): 10 min | time within which fish showed extreme agitation, began to lose equilibrium and respiration stopped (Atlantic salmon; [5]): ≤ 10 min | agitation or adverse effect on the fish (Atlantic salmon; Example 4: 0.2% (2.0 ppt) agricultural grade KCl, fresh well water at 10° C., after 60 minutes): no agitation or adverse effect | effect of KCl on effectiveness of mechanical treatments A and B at removing/detaching lice (sea lice [2]; KCl pretreatment in seawater before mechanical treatment): increases the effectiveness | # removed - mechanical + KCl (sea lice [2]; [6]): 90 | # removed - mechanical treatment only (sea lice [2]; [6]): 39 | % removed - mechanical + KCl (sea lice [2]; [6]): 78.3% | % removed - mechanical treatment only (sea lice [2]; [6]): 60.9% | Sealice counts: Detached in pre-treatment tank (sea lice [2]; [6]): 51 | Sealice counts: On fish - finish (sea lice [2]; [6]): 25 | Sealice counts: On fish - start of mechanical treatment (sea lice [2]; [6]): 64 | # removed - mechanical + KCl (sea lice [2]; [7]): 117 | # removed - mechanical treatment only (sea lice [2]; [7]): 65 | % removed - mechanical + KCl (sea lice [2]; [7]): 80.7% | % removed - mechanical treatment only (sea lice [2]; [7]): 69.9% | Sealice counts: Detached in pre-treatment tank (sea lice [2]; [7]): 52 | Sealice counts: On fish - finish (sea lice [2]; [7]): 28 | Sealice counts: On fish - start of mechanical treatment (sea lice [2]; [7]): 93 | # removed - mechanical + KCl (sea lice [2]; [8]): 99 and 115 | # removed - mechanical treatment only (sea lice [2]; [8]): 19 and 16 | % removed - mechanical + KCl (sea lice [2]; [8]): 91.7% and 99.1% | % removed - mechanical treatment only (sea lice [2]; [8]): 67.9% and 94.1% | Sealice counts: Detached in pre-treatment tank (sea lice [2]; [8]): 80 and 99 | Sealice counts: On fish - start of mechanical treatment (sea lice [2]; [8]): 28 and 17 | # removed - mechanical + KCl (sea lice [2]; [9]): 88 and 85 | # removed - mechanical treatment only (sea lice [2]; [9]): 9 and 11 | % removed - mechanical + KCl (sea lice [2]; [9]): 91.7% and 93.4% | % removed - mechanical treatment only (sea lice [2]; [9]): 52.9% and 64.7% | Sealice counts: Detached in pre-treatment tank (sea lice [2]; [9]): 79 and 74 | Sealice counts: On fish - finish (sea lice [2]; [9]): 8 and 6 | Sealice counts: On fish - start of mechanical treatment (sea lice [2]; [9]): 17 | Sealice counts: On fish - finish (sea lice [2]; Mechanical Treatment C, KCl 2 PPT in seawater, treatment time 5 min, lice not counted prior to treatment): 35 and 31 | removing/detaching lice by KCl pretreatment on its own (sea lice [2]; pretreatment at 4ppt and 2ppt in seawater): effective in removing/detaching lice on its own | effectiveness of KCl at 4ppt compared with 2ppt (sea lice [2]; seawater pretreatment): more effective | effectiveness of KCl at 4ppt for 15 minutes compared with 5 minutes (sea lice [2]; seawater pretreatment, 4ppt): more effective

emamectin benzoate
time the pesticide can remain in the fish [3]: more than two months
